# Results taken from US9757393B2 (priority 2015, dated 2017).
# Legend:
# [1] = system: PEPCK mRNA; assay: Semiquantitative RT-PCR, liver tissue: PEPCK; format: in vivo, C57BL/6J mice; details: HFD-fed mice
# Experimental: (§1) Experimental Animals: the experiments are conducted under the guidelines of the Institutional Animal Care and Use Committee of Central Taiwan University of Science and Technology. As previously described, four-week-old male C57BL/6J mice (n=63) is purchased from the National Laboratory Animal Breeding and Research Center, Ministry of Science and Technology. After 1-week of acclimatization, mice are designed to initiate the study, and the study lasts for 12 weeks. […] The CON group and high-fat control (HF) group are given with vehicle only. The low-fat diet consisted of fat 10%, whereas the high-fat diet (HFD) consisted of fat 45% (of total energy, % kcal). The compositions of the experimental diets are shown as described. At the end of the study, food is derived from the animals (from 10 p.m. to 10 a.m.). On the next day, the mice are sacrificed, and blood and tissue are collected for analysis. Livers, skeletal muscles, and white adipose tissues (WATs) (including epididymal, mesenteric and retroperitoneal WAT) are excised and weighed, and then immediately stored in a freezer at −80° C. Heparin (30 units/mL) (Sigma) is added to blood samples. Plasma samples are collected by centrifugation at 1600 g for 15 min at 4° C. within 30 min, and plasma is obtained for insulin and leptin level analysis.
# (§2) The experiment is performed as in a previously described protocol. Total RNA from the liver tissue is isolated with a Trizol reagent (Molecular Research Center, Inc., Cincinnati, Ohio, USA) according to the manufacturer's directions. Total RNA (1 μg) is reverse transcribed to cDNA with 5 μL of Moloney murine leukemia virus reverse transcriptase (Epicenter, Madison, Wis., USA) as a previously described protocol. […] The relative density of the band is evaluated using AlphaDigiDoc 1201 software (Alpha Innotech Co., San Leandro, Calif., USA). All of the measured PCR products are normalized to the amount of cDNA of GAPDH in each sample.
# [2] = system: adiponectin mRNA; assay: Semiquantitative RT-PCR, liver tissue: adiponectin; format: in vivo, C57BL/6J mice; details: HFD-fed mice, 40 mg/kg/day
# Experimental: as §1, with “Heparin (30 units/mL) (Sigma) is added to blood samples. Plasma samples are collected by centrifugation at 1600 g for 15 min at 4° C. within 30 min, and plasma is obtained for insulin and leptin level analysis.” left out
# The experiment is performed as in a previously described protocol. […] The relative density of the band is evaluated using AlphaDigiDoc 1201 software (Alpha Innotech Co., San Leandro, Calif., USA). All of the measured PCR products are normalized to the amount of cDNA of GAPDH in each sample.
# [3] = system: HFD-fed C57BL/6J mice; assay: Body weight, food intake and tissue weight in HFD-fed mice; format: in vivo; details: for Absolute Tissue Weight BAT / Absolute Tissue Weight EWAT / Absolute Tissue Weight Liver / Absolute Tissue Weight MWAT / Absolute Tissue Weight RWAT / Absolute Tissue Weight Skeletal muscle / weight gain: oral gavage daily for 4 weeks; for weight of visceral fat: vs HF group
# Experimental: as §1
# Body Weight, Food Intake and Tissue Weight. Throughout the embodiment, body weight and food intake are daily recorded at the same time. Body weight gain is defined as the difference between 1 day and the next day. The pellet food is weighed and placed in a cage food container. After 24 h, the remaining food is weighed and the crumbs are collected as much as possible. Based on the difference between 1 day and the next day, the daily food intake is calculated.
# [4] = system: SREBP2 mRNA; assay: Semiquantitative RT-PCR, liver tissue: SREBP2; format: in vivo, C57BL/6J mice; details: HFD-fed mice
# Experimental: as §1, §2
# [5] = system: HFD-fed C57BL/6J mice; assay: Hepatic lipid in HFD-fed mice; format: in vivo; details: oral gavage daily for 4 weeks
# Experimental: as §1
# Blood Lipid and Hepatic Lipid. Hepatic lipids are extracted as previously described. Liver sample (0.375 g) is homogenized with 1 mL of distilled water for 5 min for the hepatic lipid extraction and analyzed using a triglycerides kit as used for serum lipids.
# [6] = system: DGAT2 mRNA; assay: Semiquantitative RT-PCR, liver tissue: DGAT2; format: in vivo, C57BL/6J mice; details: HFD-fed mice
# Experimental: as §1, §2
# [7] = system: phospho-AMPK (Thr172); assay: Western blotting of phospho-AMPK (Thr172) in liver tissue and skeletal muscle; format: in vivo, C57BL/6J mice; details: HFD-fed mice
# Experimental: as §1
# Protein extractions and immunoblots for the determination of membrane GLUT4, phospho-AMPK (Thr172), and phospho-Akt (Ser 473) proteins are carried out on frozen skeletal muscle and liver tissue from mice, which follows a previous paper. Additionally, membrane GLUT4 is carried out on frozen skeletal muscle from mice, and the total membrane fractions are collected with buffer and centrifuged as a previously described. The protein contents of membrane GLUT4, phospho-AMPK, phospho-Akt, total AMPK, and total Akt are detected by western blotting. Western blotting has been determined as described elsewhere. Subsequently, antibodies are detected using horseradish peroxidase linked to a goat anti-IgG rabbit secondary antibody and visualized using an ECL system. Membrane GLUT4, structural proteins GAPDH and β-actin are purchased from Santa Cruz Biotechnology (Santa Cruz, Calif., USA); phospho-AMPK was obtained from Abcam Inc. (Cambridge, Mass., USA); phospho-Akt, total AMPK, and total Akt are from Cell Signaling Technology, Inc. (Danver Mass., USA); the BCA protein assay kit is from Thermo Scientific (Rockford, Ill., USA); and the ECL reagent kit is from GE Healthcare BioSciences (Buckinghamshire, UK). The secondary antibody antirabbit is from Jackson ImmunoResearch Laboratories, Inc. (West Grove, Pa., USA). The density blotting is analyzed using Alpha Easy FC software (Alpha Innotech Corp., Randburg, South Africa). Structural proteins GAPDH and β-actin are obtained by stripping the nitrocellulose membrane proteins of liver and skeletal muscle, respectively.
# [8] = system: SREBP1c mRNA; assay: Semiquantitative RT-PCR, liver tissue: SREBP1c; format: in vivo, C57BL/6J mice; details: HFD-fed mice
# Experimental: as §1, §2
smiles,measurement,setting,value
"CC(C)[C@@H](C)C=C[C@@H](C)[C@H]1CC[C@H]2C3=CCC4C[C@@H](O)CC[C@]4(C)C3=CC[C@]12C (stereo partly drawn) [ergostatrien-3β-ol, ergosta-7,9(11),22-trien-3β-ol]",mRNA level of PEPCK,[1]; 10 mg/kg/day,decreased
same,mRNA level of PEPCK,[1]; 20 mg/kg/day,decreased
same,mRNA level of PEPCK,[1]; 40 mg/kg/day,decreased
same,mRNA level of adiponectin,[2],increase
same,food intake (consumption of high-fat diet),[3]; all treated groups compared with HF mice,similarly
same,Absolute Tissue Weight BAT,[3]; 10 mg/kg/day,0.160 ± 0.007 g
same,Absolute Tissue Weight EWAT,[3]; 10 mg/kg/day,0.853 ± 0.031 g
same,Absolute Tissue Weight Liver,[3]; 10 mg/kg/day,0.813 ± 0.025 g
same,Absolute Tissue Weight MWAT,[3]; 10 mg/kg/day,0.276 ± 0.032 g
same,Absolute Tissue Weight RWAT,[3]; 10 mg/kg/day,0.281 ± 0.016 g
same,Absolute Tissue Weight Skeletal muscle,[3]; 10 mg/kg/day,0.781 ± 0.034 g
same,weight gain,[3]; 10 mg/kg/day,1.30 ± 0.39 g
same,Absolute Tissue Weight BAT,[3]; 20 mg/kg/day,0.143 ± 0.016 g
same,Absolute Tissue Weight EWAT,[3]; 20 mg/kg/day,0.774 ± 0.057 g
same,Absolute Tissue Weight Liver,[3]; 20 mg/kg/day,0.819 ± 0.025 g
same,Absolute Tissue Weight MWAT,[3]; 20 mg/kg/day,0.276 ± 0.032 g
same,Absolute Tissue Weight RWAT,[3]; 20 mg/kg/day,0.283 ± 0.025 g
same,Absolute Tissue Weight Skeletal muscle,[3]; 20 mg/kg/day,1.167 ± 0.045 g
same,weight gain,[3]; 20 mg/kg/day,1.13 ± 0.20 g
same,Absolute Tissue Weight BAT,[3]; 40 mg/kg/day,0.144 ± 0.013 g
same,Absolute Tissue Weight EWAT,[3]; 40 mg/kg/day,0.736 ± 0.070 g
same,Absolute Tissue Weight Liver,[3]; 40 mg/kg/day,0.796 ± 0.041 g
same,Absolute Tissue Weight MWAT,[3]; 40 mg/kg/day,0.244 ± 0.024 g
same,Absolute Tissue Weight RWAT,[3]; 40 mg/kg/day,0.243 ± 0.041 g
same,Absolute Tissue Weight Skeletal muscle,[3]; 40 mg/kg/day,1.351 ± 0.153 g
same,weight gain,[3]; 40 mg/kg/day,0.37 ± 0.38 g
same,weight of visceral fat,[3]; 10 mg/kg/day,decrease
same,weight of visceral fat,[3]; 20 mg/kg/day,decrease
same,weight of visceral fat,[3]; 40 mg/kg/day,decrease
same,mRNA level of SREBP2,[4]; 10 mg/kg/day,decreased
same,mRNA level of SREBP2,[4]; 20 mg/kg/day,decreased
same,mRNA level of SREBP2,[4]; 40 mg/kg/day,decreased
same,Liver Lipids total lipid,[5]; 10 mg/kg/day,72.4 ± 3.7 mg/g
same,Liver Lipids triacylglycerol,[5]; 10 mg/kg/day,57.3 ± 5.5 µmol/g
same,Liver Lipids total lipid,[5]; 20 mg/kg/day,68.0 ± 4.5 mg/g
same,Liver Lipids triacylglycerol,[5]; 20 mg/kg/day,44.5 ± 4.7 µmol/g
same,Liver Lipids total lipid,[5]; 40 mg/kg/day,65.4 ± 4.2 mg/g
same,Liver Lipids triacylglycerol,[5]; 40 mg/kg/day,43.7 ± 6.6 µmol/g
same,mRNA level of DGAT2,[6]; 10 mg/kg/day,decreased
same,mRNA level of DGAT2,[6]; 20 mg/kg/day,decreased
same,mRNA level of DGAT2,[6]; 40 mg/kg/day,decreased
same,protein contents of phospho-AMPK,"[7]; liver tissue, 10 mg/kg/day",significantly increased
same,protein contents of phospho-AMPK,"[7]; liver tissue, 20 mg/kg/day",significantly increased
same,protein contents of phospho-AMPK,"[7]; liver tissue, 40 mg/kg/day",significantly increased
same,protein contents of phospho-AMPK,"[7]; skeletal muscle, 10 mg/kg/day",significantly increased
same,protein contents of phospho-AMPK,"[7]; skeletal muscle, 20 mg/kg/day",significantly increased
same,protein contents of phospho-AMPK,"[7]; skeletal muscle, 40 mg/kg/day",significantly increased
same,mRNA level of SREBP1c,[8]; 10 mg/kg/day,decreased
same,mRNA level of SREBP1c,[8]; 20 mg/kg/day,decreased
same,mRNA level of SREBP1c,[8]; 40 mg/kg/day,decreased
